{"source": "patent US10137141B2", "about": "“Treatment regimen tiacumicin compound” (priority 2014, dated 2018)", "key": {"[1]": {"test_system": "C. difficile PCR ribotype 027", "assay": "In vitro gut model of CDI (three-stage chemostat): C. difficile viable counts, spore counts, cytotoxin titre", "type": "cell-based, Clostridium difficile", "settings": "both tapered dosing regimens (Model C and D)", "procedure": "Two 3-stage chemostat gut models were inoculated with pooled faeces (n=5). […] […] 5 days post treatment in the short course model, a further 5 days fidaxomicin pulse was given. CD total viable counts (TVC), spore counts (SP), toxin titres (CYT), and gut bacteria were measured throughout. Data were also compared with results for FDX given for 7 days (model 7).\n(§1) Two tests in a validated three-stage compound continuous culture system (Freeman J, O'Neill F J, Wilcox M H. The effects of cefotaxime and desacetylcefotaxime upon Clostridium difficile proliferation and toxin production in a triple-stage chemostat model of the human gut. J Antimicrob Chemother 2003; 52: 96-102; Baines S D, Freeman J, Wilcox M H. Effects of piperacillin/tazobactam on Clostridium difficile growth and toxin production in a human gut model. J Antimicrob Chemother 2005; 55: 974-82) were run in parallel. Models were inoculated with pooled faecal slurry (10% in anaerobic distilled water) from healthy volunteers (n=5, age >60 yrs).\nThe continuous culture system consisted of three vessels, V1, V2, and V3, with respective operating volumes of 0.22, 0.32, and 0.32 L (FIG. 1). Temperature (37° C.) and pH were automatically controlled to reflect the proximal-distal colon. Culture pH in the three vessels was 5.5, 6.2, and 6.8, respectively. Each fermentor was magnetically stirred and maintained under an atmosphere of CO2. The growth medium was continuously sparged with O2-free N2 and fed by peristaltic pump to V1. V1 sequentially supplied V2 and V3 via a series of weirs. The culture medium consisted of the following constituents (g liter-1) in distilled water: starch (BDH Ltd.), 5.0; pectin (citrus), 2.0; guar gum, 1.0; mucin (porcine gastric type III), 4.0; xylan (oatspelt), 2.0; arabinogalactan (larch wood), 2.0; inulin, 1.0; casein (BDH Ltd.), 3.0; peptone water, 5.0; tryptone, 5.0; bile salts No. 3, 0.4; yeast extract, 4.5; FeSO4 z 7H2O, 0.005; NaCl, 4.5; KCl, 4.5; KH2PO4, 0.5; MgSO4 z 7H2O, 1.25; CaCl2 z 6H2O, 0.15; NaHCO3, 1.5; cysteine, 0.8; hemin, 0.05; Tween 80, 1.0 The system was initially operated at a retention time (R) of 27.1 h (experiment 1), followed by an increase to R=66.7 h (experiment 2). Retention time was calculated as the reciprocal of dilution rate. System retention constitutes the sum of individual R values in each fermentor. Minimum doubling times of bacteria were calculated as 0.693/D, where D is the dilution rate (h−1) for each culture vessel. Each fermentor was inoculated with 100 ml of a fresh 10% (w/v) fecal slurry from a healthy, nonmethane producing donor. […] Steady-state conditions were assessed by monitoring short-chain fatty acid (SCFA) formation. […]"}, "Bifidobacteria [2]": {"test_system": "Bifidobacteria", "assay": "In vitro gut model: gut microflora by selective culture, Bifidobacteria", "type": "cell-based", "procedure": "Two 3-stage chemostat gut models were inoculated with pooled faeces (n=5). […] Models were then treated with fidaxomicin (200 mg/L bd) for 20 or 5 d to achieve in vivo gut levels. 5 days post treatment in the short course model, a further 5 days fidaxomicin pulse was given. CD total viable counts (TVC), spore counts (SP), toxin titres (CYT), and gut bacteria were measured throughout. Data were also compared with results for FDX given for 7 days (model 7).\nas §1, with “Models were inoculated with pooled faecal slurry (10% in anaerobic distilled water) from healthy volunteers (n=5, age >60 yrs).” left out\n(§2) The continuous culture system consisted of three vessels, V1, V2, and V3, with respective operating volumes of 0.22, 0.32, and 0.32 L (FIG. 1). […] Retention time was calculated as the reciprocal of dilution rate. […] Minimum doubling times of bacteria were calculated as 0.693/D, where D is the dilution rate (h−1) for each culture vessel. […] Steady-state conditions were assessed by monitoring short-chain fatty acid (SCFA) formation. […]"}, "enterococci": {"test_system": "enterococci", "assay": "In vitro gut model: gut microflora by selective culture, enterococci", "type": "cell-based", "settings": "both dosing regimens (Model C and D)", "from_the_text": "as §1\nas §2, with “1). Temperature (37° C.) and pH were automatically controlled to reflect the proximal-distal colon. Culture pH in the three vessels was 5.5, 6.2, and 6.8, respectively. Each fermentor was magnetically stirred and maintained under an atmosphere of CO2.” for “1).”"}, "[3]": {"assay": "Antimicrobial concentration (bioassay) in the in vitro gut model", "procedure": "The continuous culture system consisted of three vessels, V1, V2, and V3, with respective operating volumes of 0.22, 0.32, and 0.32 L (FIG. 1). Temperature (37° C.) and pH were automatically controlled to reflect the proximal-distal colon. Culture pH in the three vessels was 5.5, 6.2, and 6.8, respectively. Each fermentor was magnetically stirred and maintained under an atmosphere of CO2. The growth medium was continuously sparged with O2-free N2 and fed by peristaltic pump to V1. V1 sequentially supplied V2 and V3 via a series of weirs. […] Retention time was calculated as the reciprocal of dilution rate. […] Minimum doubling times of bacteria were calculated as 0.693/D, where D is the dilution rate (h−1) for each culture vessel. […] Steady-state conditions were assessed by monitoring short-chain fatty acid (SCFA) formation. […]"}, "C. difficile": {"test_system": "C. difficile", "assay": "MIC against C. difficile", "type": "cell-based, Clostridium difficile", "settings": "Clostridioides difficile"}, "CDI [4]": {"test_system": "CDI", "assay": "Expected clinical outcome of the new dosing regimens (proposed clinical study)", "type": "in vivo, patients", "settings": "expected benefit of the dosing regimens of the invention"}, "[5]": {"test_system": "C. difficile PCR ribotype 027", "settings": "cited from earlier work"}, "Bifidobacteria [6]": {"test_system": "Bifidobacteria", "settings": "both dosing regimens (Model A and Model B); cited from earlier work"}, "[7]": {"settings": "some previous fidaxomicin dosing regimens; cited from earlier work"}, "Clostridium species": {"test_system": "Clostridium species", "settings": "in vitro; cited from earlier work"}, "[8]": {"settings": "low solubility, low permeability; cited from earlier work"}, "[9]": {"settings": "oral administration; cited from earlier work"}, "CDI [10]": {"test_system": "CDI", "settings": "two Phase III trials; cited from earlier work"}, "[11]": {"test_system": "C. difficile infections (CDI)", "settings": "cited from earlier work"}, "[12]": {"settings": "Model A: fidaxomicin 200 mg/L bd for 20 d"}}, "note": "“Also recorded” adds a separate entry of the source. Where two headings read alike, the source gives them in different places.", "data": [{"smiles": "CCc1c(Cl)c(O)c(Cl)c(O)c1C(=O)O[C@H]1[C@H](O)[C@H](OC)[C@H](OC/C2=C\\C=C\\C[C@H](O)/C(C)=C/[C@H](CC)[C@@H](O[C@@H]3OC(C)(C)[C@@H](OC(=O)C(C)C)[C@H](O)[C@@H]3O)/C(C)=C/C(C)=C/C[C@@H]([C@@H](C)O)OC2=O)O[C@@H]1C", "note": "[fidaxomicin, 3-[[[6-deoxy-4-O-(3,5-dichloro-2-ethyl-4,6-dihydroxybenzoyl)-2-O-methyl-β-D-mannopyranosyl]oxy]methyl]-12(R)-[[6-deoxy-5-C-methyl-4-O-(2-methyl-1-oxopropyl)-β-D-lyxo-hexopyranosyl]oxy]-11(S)-ethyl-8(S)-hydroxy-18(S)-(1(R)-hydroxyethyl)-9,13,15-trimethyloxacyclooctadeca-3,5,9,13,15-pentaene-2-one]", "values": [{"measurement": "Reduction of C. difficile viable counts to below the level of detection", "setting": "[1]", "value": "~6", "unit": "log10 cfu/mL"}, {"measurement": "Reduction of spore counts to below the level of detection", "setting": "[1]", "value": "~4", "unit": "log10 cfu/mL"}, {"measurement": "Reduction of toxin titres to below the level of detection", "setting": "[1]", "value": 3, "unit": "RU"}, {"measurement": "Time to reduce C. difficile viable counts, spore counts and toxin titres to below the level of detection", "setting": "[1]", "value": "< 3", "unit": "days"}, {"measurement": "Declines in Bifidobacteria to limit of detection", "setting": "Bifidobacteria [2]; both dosing regimens (Model C and D)", "value": "6-8 log10 cfu/mL"}, {"measurement": "Recovery of Bifidobacteria populations", "setting": "Bifidobacteria [2]; both models (C and D), by the end of the experiment", "value": "recovered to near pre-installation counts; also recorded: recovered to close to pre-fidaxomicin levels"}, {"measurement": "Declines in enterococci", "setting": "enterococci", "value": "2-5 log10 cfu/mL"}, {"measurement": "Persistence of fidaxomicin at supra MIC level", "setting": "[3]; dosing regimens i and ii", "value": "2 to 5", "unit": "µg/mL"}, {"measurement": "Peak fidaxomicin concentration", "setting": "[3]; human", "value": "~100", "unit": "mg/L"}, {"measurement": "MIC", "setting": "C. difficile", "value": 0.25, "unit": "µg/mL"}, {"measurement": "Recurrence", "setting": "CDI [4]", "value": "below 5%"}, {"measurement": "CD TVC reduced to the limit of detection (LOD) by day", "setting": "[5]; [12]", "value": "≤ 5", "unit": "days"}, {"measurement": "CYT (toxin titre) reduced to the limit of detection (LOD) by day", "setting": "[5]; [12]", "value": "≤ 7", "unit": "days"}, {"measurement": "Reduction of CD TVCs", "setting": "[5]; Model B: 200 mg/L bd 5 d, still detectable on day 5 of treatment", "value": "~4", "unit": "log10 cfu/mL"}, {"measurement": "TVC and SP after second 5 days fidaxomicin pulse", "setting": "[5]; Model B: 5 d, 5 d rest, further 5 d pulse", "value": "decreased TVC and SP to LOD"}, {"measurement": "Decrease of bifidobacteria to below LOD", "setting": "Bifidobacteria [6]", "value": "6-8 log10 cfu/mL"}, {"measurement": "Recovery of bifidobacteria", "setting": "Bifidobacteria [6]", "value": "did not recover"}, {"measurement": "Persistence of fidaxomicin", "setting": "[7]", "value": 20, "unit": "mg/L"}, {"measurement": "MIC values compared with optically pure S-isomer of tiacumicin B and other tiacumicin related compounds", "setting": "Clostridium species", "value": "lower MIC values"}, {"measurement": "BCS (Biopharmaceutics Classification System) class", "setting": "[8]", "value": "Class IV"}, {"measurement": "Absorption from the intestinal tract", "setting": "[9]", "value": "poorly absorbed"}, {"measurement": "Initial clinical cure of CDI versus vancomycin", "setting": "CDI [10]", "value": "non-inferiority"}, {"measurement": "Reduction of recurrence and sustained clinical response versus vancomycin", "setting": "CDI [10]", "value": "superiority"}, {"measurement": "Courses resulting in treatment success", "setting": "[11]; 18 courses of fidaxomicin in 14 patients (FID-TX, FID-CH, FID-TP)", "value": 18, "unit": "courses"}, {"measurement": "RCDI", "setting": "[11]; FID-CH: 10-day fidaxomicin chaser, 8 courses, excluding RCDI due to antimicrobial exposure", "value": 25, "unit": "%"}, {"measurement": "Average symptom-free interval (SFI)", "setting": "[11]; FID-CH", "value": 240, "unit": "days"}, {"measurement": "RCDI", "setting": "[11]; FID-TP: taper 200 mg daily 7 days then 200 mg QOD 7-26 days, 7 courses", "value": "no RCDI"}, {"measurement": "Average symptom-free interval (SFI)", "setting": "[11]; FID-TP", "value": 150, "unit": "days"}, {"measurement": "RCDI episodes", "setting": "[11]; FID-TX: 200 mg BID for 10 days, 3 courses", "value": 66, "unit": "%"}, {"measurement": "Average symptom-free interval (SFI)", "setting": "[11]; FID-TX", "value": 73, "unit": "days"}]}, {"smiles": "CN[C@H](CC(C)C)C(=O)N[C@H]1C(=O)N[C@@H](CC(N)=O)C(=O)N[C@H]2C(=O)N[C@H]3C(=O)N[C@H](C(=O)N[C@H](C(=O)O)c4cc(O)cc(O)c4-c4cc3ccc4O)[C@H](O)c3ccc(c(Cl)c3)Oc3cc2cc(c3O[C@@H]2O[C@H](CO)[C@@H](O)[C@H](O)[C@H]2O[C@H]2C[C@](C)(N)[C@H](O)[C@H](C)O2)Oc2ccc(cc2Cl)[C@H]1O", "note": "[vancomycin]", "values": [{"measurement": "Average symptom-free interval (SFI)", "setting": "[11]; following a vancomycin taper", "value": 37, "unit": "days"}]}]}
